Reference: ChEMBL document CHEMBL1201862, “PubChem BioAssay data set” (2004)
Active and inactive are the calls of the source.

What was measured:
[1] = target: T1, Small ubiquitin-related modifier 1 (Homo sapiens, UniProt P63165); assay: inhibitors of SUMO1 partner interactions, dose response, biochemical, FRET (AID 624383); type: functional; settings: read-out: IC50_Mean
Beta-lactamase [2] = target: Beta-lactamase (Salmonella choleraesuis (strain SC-B67), UniProt Q5J463)
Beta-lactamase [3] = target: Beta-lactamase (Pseudomonas aeruginosa, UniProt Q79MP6);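 also: biochemical dose-response test of metallo-beta-lactamase enzyme inhibition, read out by epi-absorbance; purified recombinant IMP-1 metallo-beta-lactamase with nitrocefin as substrate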
Sequence of Beta-lactamase (Pseudomonas aeruginosa, UniProt Q79MP6) (Q79MP6 whole entry): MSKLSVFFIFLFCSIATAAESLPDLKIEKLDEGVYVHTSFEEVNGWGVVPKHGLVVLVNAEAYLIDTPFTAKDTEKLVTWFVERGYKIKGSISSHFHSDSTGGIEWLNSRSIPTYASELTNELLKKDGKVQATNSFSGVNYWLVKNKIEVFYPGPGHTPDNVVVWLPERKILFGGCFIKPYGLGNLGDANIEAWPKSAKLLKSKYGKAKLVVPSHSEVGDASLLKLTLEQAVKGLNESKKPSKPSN

[4] = target: T1, Small ubiquitin-related modifier 1; assay: inhibitors of SUMO1 peptide binding, dose response, biochemical, fluorescence polarization, uHTS hits (AID 624382); type: functional; settings: read-out: IC50_Mean
[5] = target: Adenosylmethionine-8-amino-7-oxononanoate aminotransferase (Mycobacterium tuberculosis, UniProt P9WQ81); assay: Mycobacterium tuberculosis BioA enzyme inhibitor Measured in Biochemical System Using Plate Reader - 2163-02_Inhibitor_Dose_CherryPick_Activity.; type: functional, Mycobacterium tuberculosis UT205
Sequence of Adenosylmethionine-8-amino-7-oxononanoate aminotransferase (P9WQ81 whole entry): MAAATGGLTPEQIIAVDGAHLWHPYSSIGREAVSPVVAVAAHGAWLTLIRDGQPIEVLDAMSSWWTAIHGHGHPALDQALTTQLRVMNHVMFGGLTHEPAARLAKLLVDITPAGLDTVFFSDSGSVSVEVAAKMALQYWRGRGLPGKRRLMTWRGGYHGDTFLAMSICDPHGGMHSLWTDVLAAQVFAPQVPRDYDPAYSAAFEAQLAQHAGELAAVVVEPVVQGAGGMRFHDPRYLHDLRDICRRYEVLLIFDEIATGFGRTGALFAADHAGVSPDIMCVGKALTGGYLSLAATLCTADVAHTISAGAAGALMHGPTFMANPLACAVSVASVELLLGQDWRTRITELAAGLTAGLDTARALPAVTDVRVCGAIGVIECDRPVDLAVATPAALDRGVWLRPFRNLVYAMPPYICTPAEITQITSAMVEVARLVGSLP

[6] = target: T2, Corticotropin-releasing factor receptor 2/Corticotropin-releasing factor-binding protein (Homo sapiens, UniProt P24387+Q13324); assay: activators of CRF receptor 2 with binding protein – uHTS hits, confirmation (AID 602473); type: functional; settings: read-out: EC50_Mean
T2 sequence (Q13324 whole entry): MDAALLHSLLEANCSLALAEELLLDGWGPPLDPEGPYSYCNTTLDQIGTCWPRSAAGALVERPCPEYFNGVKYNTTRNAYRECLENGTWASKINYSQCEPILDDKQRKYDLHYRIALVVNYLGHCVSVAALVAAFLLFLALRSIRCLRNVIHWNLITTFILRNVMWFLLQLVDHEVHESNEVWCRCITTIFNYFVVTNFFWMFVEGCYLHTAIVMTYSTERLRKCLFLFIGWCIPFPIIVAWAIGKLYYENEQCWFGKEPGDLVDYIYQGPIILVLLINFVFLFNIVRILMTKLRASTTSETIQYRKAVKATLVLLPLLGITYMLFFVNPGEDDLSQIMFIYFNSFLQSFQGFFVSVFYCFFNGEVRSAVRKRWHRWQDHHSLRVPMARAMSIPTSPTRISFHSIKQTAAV
T2 sequence (P24387 whole entry): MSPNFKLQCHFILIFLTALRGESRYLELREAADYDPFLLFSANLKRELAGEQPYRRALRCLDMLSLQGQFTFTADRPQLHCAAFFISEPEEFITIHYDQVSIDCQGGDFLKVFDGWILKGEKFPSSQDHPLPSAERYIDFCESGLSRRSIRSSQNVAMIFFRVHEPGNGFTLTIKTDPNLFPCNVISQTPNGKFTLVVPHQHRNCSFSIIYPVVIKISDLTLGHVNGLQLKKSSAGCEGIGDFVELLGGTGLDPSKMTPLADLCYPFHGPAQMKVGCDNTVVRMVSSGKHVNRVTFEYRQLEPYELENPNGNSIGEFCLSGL

[7] = target: T2, Corticotropin-releasing factor receptor 2/Corticotropin-releasing factor-binding protein; assay: Dose Response confirmation of uHTS hits for small molecule antagonists of the CRF-binding protein and CRF-R2 receptor complex.; type: functional; settings: read-out: IC50_Mean
[8] = CRF-BP/CRF-R2 complex antagonists, dose response, cell-based, uHTS hits, 384-well (AID 651639); type: functional, Homo sapiens; settings: read-out: IC50_Mean
[9] = target: Photoreceptor-specific nuclear receptor (Homo sapiens, UniProt Q9Y5X4); type: functional, cell-based;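 also: CHO-S cells with Gal4-NCOR and VP16-NR2E3 two-hybrid luciferase reporter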
Sequence of Photoreceptor-specific nuclear receptor (Q9Y5X4 whole entry, the tested form may be a part): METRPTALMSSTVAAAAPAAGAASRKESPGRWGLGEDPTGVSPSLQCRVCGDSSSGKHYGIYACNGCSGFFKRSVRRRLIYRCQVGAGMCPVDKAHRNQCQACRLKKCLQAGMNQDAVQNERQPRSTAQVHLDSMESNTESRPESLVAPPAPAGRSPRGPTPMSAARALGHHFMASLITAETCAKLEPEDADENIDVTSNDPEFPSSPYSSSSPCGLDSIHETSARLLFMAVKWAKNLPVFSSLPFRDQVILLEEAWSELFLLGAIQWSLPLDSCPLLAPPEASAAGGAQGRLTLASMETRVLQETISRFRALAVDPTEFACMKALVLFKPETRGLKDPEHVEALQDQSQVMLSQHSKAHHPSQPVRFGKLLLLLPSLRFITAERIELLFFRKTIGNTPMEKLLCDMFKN

Leucine aminopeptidase = target: T3, Leucine aminopeptidase (Plasmodium falciparum 3D7, UniProt Q8IL11); assay: P. falciparum M17LAP inhibitors, primary screen, biochemical, fluorogenic H-Leu-NHMec substrate, 1536-well (AID 1619); type: functional
T3 sequence (Q8IL11 whole entry): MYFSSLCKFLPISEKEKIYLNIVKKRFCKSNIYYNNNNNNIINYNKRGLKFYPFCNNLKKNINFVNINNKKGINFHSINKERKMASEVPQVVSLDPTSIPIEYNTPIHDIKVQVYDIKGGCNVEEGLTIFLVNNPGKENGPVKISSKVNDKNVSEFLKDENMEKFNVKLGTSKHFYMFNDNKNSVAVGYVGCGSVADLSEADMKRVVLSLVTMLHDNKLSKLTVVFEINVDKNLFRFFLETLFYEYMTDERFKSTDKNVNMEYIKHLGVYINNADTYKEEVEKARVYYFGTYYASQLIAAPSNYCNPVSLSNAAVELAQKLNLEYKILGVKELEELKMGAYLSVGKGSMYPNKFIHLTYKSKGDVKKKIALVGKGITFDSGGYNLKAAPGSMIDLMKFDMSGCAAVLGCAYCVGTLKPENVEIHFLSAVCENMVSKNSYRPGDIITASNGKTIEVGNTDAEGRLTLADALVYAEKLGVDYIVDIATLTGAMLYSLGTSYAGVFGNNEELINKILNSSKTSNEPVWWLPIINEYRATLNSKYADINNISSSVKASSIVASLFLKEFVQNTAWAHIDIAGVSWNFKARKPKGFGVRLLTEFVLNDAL

[10] = Luminescence Cell-Based Dose Retest to Confirm Inhibitors of Cancer Stem Cells. [Related pubchem assays (depositor defined):AID2717, AID2721]; type: functional; settings: Homo sapiens
Caspase-6 = target: T4, Caspase-6 (Homo sapiens, UniProt P55212); assay: human caspase-6 inhibitors, dose response, biochemical, VEID-R110 fluorescence, cherry-pick (AID 720632)
T4 sequence (P55212 whole entry): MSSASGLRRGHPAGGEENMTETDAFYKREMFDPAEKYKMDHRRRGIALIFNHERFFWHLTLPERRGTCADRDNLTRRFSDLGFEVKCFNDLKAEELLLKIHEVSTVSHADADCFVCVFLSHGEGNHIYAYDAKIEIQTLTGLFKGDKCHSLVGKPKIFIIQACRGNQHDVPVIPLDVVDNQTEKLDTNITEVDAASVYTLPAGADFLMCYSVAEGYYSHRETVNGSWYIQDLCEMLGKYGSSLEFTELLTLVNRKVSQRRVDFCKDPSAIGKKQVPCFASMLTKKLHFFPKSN

[11] = miR-122 activators in hepatoma reporter cells, dose response, cell-based, Huh7 psiCHECK-miR122, Renilla luciferase, cherry-picked (AID 651956); type: functional;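 also: huh7 hepatoma cells stably carrying a psiCHECK-2 miR-122 sensor plasmid; renilla luciferase signal reporting endogenous miR-122 activity after 48 h compound exposure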
[12] = HEK293T cytotoxicity, dose response, cytotoxicity control for miR-122 modulator project, cell-based, inhibitor set, cherry-pick, set 2 (AID 720697); type: functional
[13] = Fluorescence-based cell-based high throughput dose response assay for inhibitors of the interaction of nucleotide-binding oligomerization domain containing 2 (NOD2) and the receptor-interacting serine-threonine kinase 2 (RIPK2).; type: functional; settings: Homo sapiens
[14] = target: T5, Microphthalmia-associated transcription factor (Homo sapiens, UniProt O75030); assay: TRPM1 promoter luciferase signal decrease, dose response, MITF inhibitor project, cell-based, SK-MEL-5, cherry-picked, set 3 (AID 493073); type: functional
T5 sequence (O75030 whole entry): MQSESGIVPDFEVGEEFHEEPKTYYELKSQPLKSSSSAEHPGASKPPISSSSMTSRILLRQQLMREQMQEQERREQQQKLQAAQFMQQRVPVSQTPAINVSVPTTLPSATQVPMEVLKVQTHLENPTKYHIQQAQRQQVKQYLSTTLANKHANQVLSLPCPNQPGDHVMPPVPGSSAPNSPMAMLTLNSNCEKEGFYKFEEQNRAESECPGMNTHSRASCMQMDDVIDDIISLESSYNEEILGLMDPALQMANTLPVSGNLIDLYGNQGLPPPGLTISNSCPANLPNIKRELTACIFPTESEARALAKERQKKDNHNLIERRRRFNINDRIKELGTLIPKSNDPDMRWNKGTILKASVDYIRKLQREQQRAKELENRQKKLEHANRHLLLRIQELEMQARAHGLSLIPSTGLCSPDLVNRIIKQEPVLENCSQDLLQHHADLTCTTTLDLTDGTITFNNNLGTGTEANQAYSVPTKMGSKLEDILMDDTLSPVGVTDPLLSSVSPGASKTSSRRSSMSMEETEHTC

Paired box protein Pax-8 = Paired box protein Pax-8 (Homo sapiens, UniProt Q06710); assay: inhibitors of PAX8-driven TPO luciferase reporter, dose response, RMG-I cells, cherry-pick (AID 687027); type: functional, cell-based;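 also: luciferase reporter driven by Pax8 target thyroperoxidase promoter measured by SteadyGlo luminescence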
Sequence of Paired box protein Pax-8 (Q06710 whole entry): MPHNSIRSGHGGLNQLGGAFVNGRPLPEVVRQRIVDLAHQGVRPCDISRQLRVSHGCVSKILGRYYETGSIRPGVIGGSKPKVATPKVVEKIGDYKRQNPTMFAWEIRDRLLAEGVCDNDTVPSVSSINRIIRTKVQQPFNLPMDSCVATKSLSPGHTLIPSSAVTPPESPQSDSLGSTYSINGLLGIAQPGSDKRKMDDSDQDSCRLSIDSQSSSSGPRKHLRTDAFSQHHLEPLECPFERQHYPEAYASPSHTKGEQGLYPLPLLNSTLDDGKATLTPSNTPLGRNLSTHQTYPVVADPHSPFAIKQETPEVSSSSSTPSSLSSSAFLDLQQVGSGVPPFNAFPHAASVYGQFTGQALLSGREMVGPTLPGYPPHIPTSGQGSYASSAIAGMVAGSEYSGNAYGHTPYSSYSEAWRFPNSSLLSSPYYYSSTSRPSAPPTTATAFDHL

[15] = HEK293T cytotoxicity, dose response, cytotoxicity control for miR-122 modulator project, cell-based, activator set, cherry-pick (AID 720690); type: functional;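 also: HEK293T human cells scored for general mammalian cytotoxicity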
[16] = target: T6, Low molecular weight phosphotyrosine protein phosphatase (Homo sapiens, UniProt P24666); type: functional; settings: read-out: IC50_Mean
T6 sequence (P24666 whole entry): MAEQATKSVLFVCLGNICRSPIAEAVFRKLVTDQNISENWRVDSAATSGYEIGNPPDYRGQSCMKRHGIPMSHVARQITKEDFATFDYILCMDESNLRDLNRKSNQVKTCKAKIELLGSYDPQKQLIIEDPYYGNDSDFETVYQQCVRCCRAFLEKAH

[17] = target: T6, Low molecular weight phosphotyrosine protein phosphatase; type: functional; settings: read-out: IC50_Mean; remark: listed apart in the source

T1 sequence (P63165 whole entry): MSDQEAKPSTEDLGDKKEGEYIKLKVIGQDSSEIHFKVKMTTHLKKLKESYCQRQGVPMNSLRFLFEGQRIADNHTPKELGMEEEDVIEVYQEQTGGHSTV
Sequence of Beta-lactamase (Salmonella choleraesuis (strain SC-B67), UniProt Q5J463) (Q5J463 whole entry): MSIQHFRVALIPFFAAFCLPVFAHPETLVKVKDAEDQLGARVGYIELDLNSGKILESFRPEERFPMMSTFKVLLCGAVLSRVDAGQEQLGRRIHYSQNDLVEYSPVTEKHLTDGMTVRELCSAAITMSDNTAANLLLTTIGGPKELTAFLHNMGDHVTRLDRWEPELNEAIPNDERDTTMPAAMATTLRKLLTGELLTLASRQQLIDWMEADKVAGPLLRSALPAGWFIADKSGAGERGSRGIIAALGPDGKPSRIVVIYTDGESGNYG

Q: Which IC50 [1] does the source give for COc1ccccc1-c1csc(-n2ncc(C#N)c2N)n1 here?
A: 6.71 µM (active)

Q: And the IC50 (Beta-lactamase [2])?
A: > 59.6 µM (inactive)

Q: And the IC50 (Beta-lactamase [3])?
A: > 59.6 µM (inactive)

Q: What about the IC50 [4] of the same compound?
A: > 66.6 µM (inactive)

Q: Which AC50 [5] does the source give for CCc1nn(CC(=O)N2CCN(Cc3ccc4c(c3)OCO4)CC2)c(=O)c2cc3occc3n12 here?
A: 1.01 µM (active)

Q: What does the source list for Cc1ccc(S(=O)(=O)N(CC(=O)Nc2ccccc2C(=O)O)c2cccc(Cl)c2C)cc1?
A: EC50 [6]: 41.2 µM (active); IC50 [7]: 41.1 µM (active); IC50 [8]: 15.6 µM (active); IC50 [9]: 2.15 µM (active); IC50 (Leucine aminopeptidase): 24.7 µM (active)

Q: Which AC50 [10] does the source give for Cc1ccc(NC(=O)CN(C)C(=O)Cn2ncc(Cl)c(Cl)c2=O)cc1 here?
A: 4.54 µM (active)

Q: What about the AC50 (Caspase-6) of the same compound?
A: 5.9 µM (active)

Q: What about the AC50 [11] of the same compound?
A: 4.2 µM (active)

Q: What about the AC50 [12] of the same compound?
A: 8.04 µM (active)

Q: What about the IC50 [13] of the same compound?
A: 4.34 µM (active)

Q: What about the AC50 [14] of the same compound?
A: 9.16 µM (active)

Q: And the AC50 (Paired box protein Pax-8)?
A: 3.57 µM (active)

Q: What about the AC50 [15] of the same compound?
A: 3.57 µM (active)

Q: For O=C(CN1CCN(c2ccccc2F)CC1)c1ccc2cc[nH]c2c1, which IC50 [16] is on record?
A: 5.49 µM (active)

Q: What about the IC50 [17] of the same compound?
A: 14.6 µM (active)

Q: Which AC50 [5] does the source give for Cc1c(OC(C)C(=O)NCc2ccccn2)ccc2c3c(c(=O)oc12)CCC3 (stereo unspecified) here?
A: 6.05 µM (active)
